For orientation: mortality means the percentage killed.

Holding throughout (type): in vivo
Data set [1] deals with Beet Armyworm (Spodoptera exigua). Put plainly: Bioassays on BAW, 128-well diet tray assay. The settings on record: Spodoptera exigua; for mortality at 50 µg/cm2: 168 h, 50 μg/cm^2 on artificial diet, second instar larvae, five to seven days, read-out: BAW % Control (or Mortality) rating.
Data set [2] relates to Cabbage Looper (Trichoplusia ni). Put plainly: Bioassays on CL, 128-well diet tray assay. As to conditions: Trichoplusia ni; for mortality at 50 µg/cm2: 168 h, 50 μg/cm^2 on artificial diet, second instar larvae, five to seven days, read-out: CL % Control (or Mortality) rating. In a few lines:
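Second-instar larvae (1–5 per well) were fed diet surface-treated with 50 μg/cm^2 compound, eight wells each. After five to seven days at 25° C. under a 14:10 photoperiod, mortality was scored per well and the eight wells averaged.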

For data set [3], the system named is Yellow Fever Mosquito (Aedes aegypti). The experiment in a line: Bioassays on Yellow Fever Mosquito larvae, 96-well plate. As to conditions: from 4000 ppm DMSO master plate, about 1 day-old larvae, 3 days. Put shortly:
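Aedes aegypti larvae about 1 day old, in water with liver powder, exposed in 96-well plates to compounds from a 4000 ppm DMSO master solution diluted in 90:10 water:acetone. Plates covered and held at room temperature for 3 days, then each well scored for mortality; 6 replicate plates.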

For data set [4], the system named is Green Peach Aphid (Myzus persicae). The experiment in a line: Bioassays on Green Peach Aphid, foliar spray on cabbage seedlings. As to conditions: 72 h, 200 ppm spray on cabbage seedlings, three days, Abbott corrected % control, read-out: GPA % Control (or Mortality) rating. The protocol: Cabbage seedlings grown in 3-inch pots, with 2-3 small (3-5 cm) true leaves, were used as test substrate. The seedlings were infested with 20-50 GPA (wingless adult and nymph stages) one day prior to chemical application. Four pots with individual seedlings were used for each treatment. Test molecules (2 mg) were dissolved in 2 mL of acetone/methanol (1:1) solvent, forming stock solutions of 1000 ppm test molecule. The stock solutions were diluted 5× with 0.025% Tween 20 in water to obtain the solution at 200 ppm test molecule. A hand-held aspirator-type sprayer was used for spraying a solution to both sides of […] leaves until runoff. Reference plants (solvent check) were sprayed with the diluent only containing 20% by volume of acetone/methanol (1:1) solvent. Treated plants were held in a holding room for three days at approximately 25° C. and ambient relative humidity (RH) prior to grading. Evaluation was conducted by counting the number of live aphids per plant under a microscope. Percent Control was measured by using Abbott's correction formula (W. S. Abbott, “A Method of Computing the Effectiveness of an Insecticide” J. Econ. Entomol. 18 (1925), pp. 265-267) as follows.
Corrected % Control=100*(X−Y)/X • where • X=No. of live aphids on solvent check plants and • Y=No. of live aphids on treated plants

In the case of `C[C@H](CSCC(F)(F)F)NC(=O)c1ccc(/C=C/C(c2cc(Cl)c(Cl)c(Cl)c2)C(F)(F)F)cc1Br` (stereo partly drawn) [F38, 2-Bromo-4-((E)-4,4,4-trifluoro-3-(3,4,5-trichlorophenyl)but-1-en-1-yl)-N-((R)-1-((2,2,2-trifluoroethyl)thio)propan-2-yl)benzamide], the mortality at 50 µg/cm2 in data set [1] and in data set [2] was 50 to 100% in each case. In addition, in data set [3], the “YFM % Control (or Mortality) rating” value is “A (80-100)”. Also, the mortality at 200 ppm in data set [4] fell in the range of 0 to 80%.
For the compound `C[C@H](C[S+]([O-])CC(F)(F)F)NC(=O)c1ccc(/C=C/C(c2cc(Cl)c(F)c(Cl)c2)C(F)(F)F)cc1Br` (stereo partly drawn) [F49, 2-Bromo-4-((E)-3-(3,5-dichloro-4-fluorophenyl)-4,4,4-trifluorobut-1-en-1-yl)-N-((2R)-1-((2,2,2-trifluoroethyl)sulfinyl)propan-2-yl)benzamide], the mortality at 50 µg/cm2 in data set [1] and in data set [2] was 50 to 100% each time. Further, the “YFM % Control (or Mortality) rating” value in data set [3] is listed as “A (80-100)”. Further, the mortality at 200 ppm in data set [4] came out at 0%.
Regarding `C[C@H](CSCC(F)(F)F)NC(=O)c1ccc(/C=C/C(c2cc(Br)cc(Br)c2)C(F)(F)F)cc1C(F)(F)F` (stereo partly drawn) [F56, 4-((E)-3-(3,5-Dibromophenyl)-4,4,4-trifluorobut-1-en-1-yl)-N—((R)-1-((2,2,2-trifluoroethyl)thio)propan-2-yl)-2-(trifluoromethyl)benzamide], the mortality at 50 µg/cm2 in data set [1] and in data set [2] was 50 to 100% throughout. Also, the “YFM % Control (or Mortality) rating” value in data set [3] was “A (80-100)”. Further, the mortality at 200 ppm in data set [4] was 0%.
With `C[C@H](CS(=O)(=O)CC(F)(F)F)NC(=O)c1ccc(/C=C/C(c2cc(Cl)c(Cl)c(Cl)c2)C(F)(F)F)cc1Cl` (stereo partly drawn) [F58, 2-Chloro-4-((E)-4,4,4-trifluoro-3-(3,4,5-trichlorophenyl)but-1-en-1-yl)-N—((R)-1-((2,2,2-trifluoroethyl)sulfonyl)propan-2-yl)benzamide], the mortality at 50 µg/cm2 in data set [1] and in data set [2] was 50 to 100% throughout. Besides, the mortality at 0.05 µg/cm2 in data set [1] (0.05 μg/cm^2, read-out: BAW Percent control (or mortality)) worked out at 100%; in data set [2] (0.05 μg/cm^2, read-out: CL Percent control (or mortality)) it was 100%. The mortality at 0.5 µg/cm2 in data set [1] (0.5 μg/cm^2, read-out: BAW Percent control (or mortality)) was determined as 100%; in data set [2] (0.5 μg/cm^2, read-out: CL Percent control (or mortality)), 100%. The mortality at 5 µg/cm2 worked out at 100% in data set [1] (5 μg/cm^2, read-out: BAW Percent control (or mortality)) and 100% in data set [2] (5 μg/cm^2, read-out: CL Percent control (or mortality)). For the same compound, the “YFM % Control (or Mortality) rating” value in data set [3] is “A (80-100)”. Besides, in data set [4], the mortality at 200 ppm worked out at 0%.
Turning to `CCS(=O)(=O)C[C@@H](C)NC(=O)c1ccc(/C=C/C(c2cc(Cl)c(Cl)c(Cl)c2)C(F)(F)F)cc1C(F)(F)F` (stereo partly drawn) [F68, N—((R)-1-(Ethylsulfonyl)propan-2-yl)-4-((E)-4,4,4-trifluoro-3-(3,4,5-trichlorophenyl)but-1-en-1-yl)-2-(trifluoromethyl)benzamide], the mortality at 50 µg/cm2 in data set [1] and in data set [2] was 50 to 100% each time. In addition, the “YFM % Control (or Mortality) rating” value in data set [3] is on record as “A (80-100)”. Moreover, in data set [4], the mortality at 200 ppm lay in the range of 0 to 80%.
On to `CCC[S+]([O-])C[C@@H](C)NC(=O)c1ccc(/C=C/C(c2cc(Cl)c(Cl)c(Cl)c2)C(F)(F)F)cc1C(F)(F)F` (stereo partly drawn) [F111, N-((2R)-1-(Propylsulfinyl)propan-2-yl)-4-((E)-4,4,4-trifluoro-3-(3,4,5-trichlorophenyl)but-1-en-1-yl)-2-(trifluoromethyl)benzamide], for which the mortality at 50 µg/cm2 in data set [1] and in data set [2] was 50 to 100% throughout. For the same compound, the “YFM % Control (or Mortality) rating” value in data set [3] is recorded as “A (80-100)”. The mortality at 200 ppm in data set [4] lay in the range of 0 to 80%.
For `C[C@H](CSCCF)NC(=O)c1ccc(/C=C/C(c2cc(Cl)c(Cl)c(Cl)c2)C(C)(F)F)cc1C(F)(F)F` (stereo partly drawn) [F119, 4-((E)-4,4-Difluoro-3-(3,4,5-trichlorophenyl)pent-1-en-1-yl)-N—((R)-1-((2-fluoroethyl)thio)propan-2-yl)-2-(trifluoromethyl)benzamide], the mortality at 50 µg/cm2 in data set [1] and in data set [2] was 50 to 100% throughout. Also, the “YFM % Control (or Mortality) rating” value in data set [3] is given as “A (80-100)”. In addition, the mortality at 200 ppm in data set [4] lay within 0 to 80%.

Values taken from US20170210723A1, “MOLECULES HAVING PESTICIDAL UTILITY, AND INTERMEDIATES, COMPOSITIONS, AND PROCESSES, RELATED THERETO” (priority 2016, published 2017).
